Patent US20070232572A1, “Chemical derivatives as antitelomerase agents which bind specifically to the G-quadruplex DNA structures and their application as a specific anticancer agent” (priority 2003, published 2007)
Like-named read-outs stand apart in the source and are kept apart here.

Columns and labels:
[1] = system: human telomerase (extract of A549 cells), oligonucleotide TSG4; experiment: Antitelomerase activity by the TRAP-G4 assay; format: biochemical; conditions: formation of the TSG4-CXext band; read-out: Inhibition of telomerase IC50 (IC50 TRAP-G4)
Description: The extract is stored at -80° C.

[2] = system: G-quadruplex oligonucleotide GGGTTAGGGTTAGGGTTAGGG (3.5 repeats of the human telomeric unit), FAM+DABCYL; experiment: Test of affinity No. 3: stabilization of the G-quadruplexes, fluorescence Tm; format: binding; conditions: test product 1 μM, oligonucleotide 0.2 μM, 0.1 M LiCl, 10 mM cacodylate pH 7.6; reference Tm 44° C.
Excerpt: Test of affinity No. 3: Measurement of the stabilization of the G-guadruplexes Tm, expressed in ° C., by a method using the formation of a complex with fluorescein of which the experimental protocol is described below.
All the oligonucleotides, modified or otherwise, were synthesized by Eurogentec S A, Seraing, Belgium. The oligonucleotide FAM+DABCYL has the catalog reference OL-0371-0802. It has the sequence: […] corresponding to 3.5 repeats of the human telomeric unit (strand rich in G). The fluorescein is attached to the 5′ end, the DABCYL to the 3′ end, by the chemical arms described by Eurogentec. An oligonucleotide FAM+TAMRA may also be used. The concentration of the samples is checked by spectrophotometry, by recording the absorbance spectrum between 220 and 700 nm and using the molar extinction coefficient provided by the supplier.
All the experiments were carried out in a 10 mM sodium cacodylate buffer pH 7.6 containing 0.1 M lithium chloride (or sodium chloride). The absence of fluorescent contamination in the buffer was checked beforehand. The fluorescent oligonucleotide is added at the final concentration of 0.2 μM.
All the measurements of fluorescence were carried out on a Spex Fluorolog DM1B or Fluoromax 3 apparatus, using an excitation line width of 1.8 nm and an emission line width of 4.5 or 5 nm. The samples are placed in a microquartz cuvette of 0.2×1 cm. […] The oligonucleotide alone was analyzed at 20, 30, 40, 50, 60, 70 and 80° C. The emission spectra are recorded using an excitation wavelength of 470 nm. The excitation spectra are recorded using either 515 or 588 nm as emission wavelength. […] A high extinction (80-90%) of the fluorescence of fluorescein at room temperature is observed, in agreement with an intramolecular folding of the oligonucleotide at 20° C. in the form of a G-quadruplex, which induces juxtaposition of its 5′ and 3′ ends which are respectively linked to fluorescein and to DABCYL. This juxtaposition causes an already-described phenomenon of extinction of fluorescence which is used for “Molecular Beacons”. […]

[3] = system: any oligonucleotide (non-G-quadruplex control sequence) with its complementary strand; experiment: Test of selectivity No. 1 (alpha screen): inhibition of pairing of any oligonucleotide with its complementary strand, luminescence; format: binding; conditions: control oligonucleotide pairing versus G4 oligonucleotide pairing
Excerpt: The test used is the same as that described above. Only the oligonucleotides are different, the telomeric strand being replaced by an oligonucleotide having the following sequence: G-GTT-TAA-AAT-AAT-TGA-GGC-TTA-CCG-TTA-CCG-TTA-CGG biotinylated at the 5′ end. The complementary strand has the sequence: 5′-GGT-TTA-AAA-AAT-TTG-CGG-TAA-CGG-TAA-CGG-TAA-GCC-T labeled with digoxigenin at the 5′ end. If the test product has affinity for the biotinylated DNA sequence, the pairing of the complementary strand will be prevented and the signal obtained will be minimal. In the absence of product or if the latter has no affinity for this DNA, the pairing will occur and the signal will be maximum.

[4] = system: oligonucleotide capable of forming a G-quadruplex structure (G-rich strand, repetitive units of human telomeric DNA); experiment: Test of affinity No. 1 (alpha screen): inhibition of pairing of a G-quadruplex-forming oligonucleotide with its complementary strand, luminescence; format: binding; conditions: 50 mM TRIS-HCl pH 7.4, 100 mM KCl, 0.1% BSA; telomeric strand vs complementary strand; read-out: Affinity/selectivity G4 Test 1 (alpha screen) Affinity IC50
Excerpt: The principle of this test uses the activation of “acceptor” beads by an oxygen singlet emitted by “donor” beads excited by laser when the “acceptor” and “donor” beads are in proximity. This test was developed by Packard Bioscience under the name Amplified Luminescent Proximity Homogeneous Assay or ALPHA screen.
The “donor” beads are conjugated with streptavidin and the acceptor beads with an anti-digoxigenin antibody (catalog reference 6760604). A DNA strand, in this case the telomeric strand, is coupled at its 5′ end to biotin so as to be able to bind to the “donor” beads, while the complementary strand is coupled to digoxigenin so as to be able to bind to the “acceptor” beads. During the pairing of the telomeric strand with its complementary strand, the beads are placed in proximity and a luminescence signal is then emitted at a wavelength of 520-620 nm.
The oligonucleotides used in the experiments were synthesized by Perkin Elmer Life Sciences (Finland). […] The complementary strand has the sequence GGT-TTA-AAA-AAT-TTG-CCC-TAA-CCC-TAA-CCC-TAA-CCC-T. The biotin or the digoxigenin are added to the 5′ end of the oligonucleotides.
The experiments are carried out in 50 mM TRIS-HCl buffer pH 7.4 containing 100 mM KCl and 0.1% BSA.
The measurements are carried out with an Alphaquest microplate analyzer (Fusion α) from Packard Biosciences.
The experiments are carried out in 96-well plates (½ wells). An oligonucleotide stock solution at the concentration of 25 nM in the buffer described above is prepared. 10 μl of this solution are distributed into the wells. 10 μl of the test product at different concentrations, prepared in the same buffer containing 0.6% DMSO, are then added. 10 μl of buffer+0.6% DMSO are distributed into the control wells. The samples are left to incubate for 15 minutes at room temperature. After this incubation time, 10 μl of the complementary strand at the concentration of 25 nM and 20 μl of a solution containing 2 types of bead diluted beforehand to 50 mg/ml are added to the wells. The plates are incubated at room temperature for 2 hours before reading. […]

[5] = system: any double-stranded oligonucleotide; experiment: Test of selectivity No. 2: dissociation constant of the complex with a double-stranded oligonucleotide, by fluorescence; format: binding; conditions: DNA double strand versus oligonucleotide G4
Description: Test of selectivity No. 2: Measurement of the dissociation constant, expressed in μM, of the complex between a product of the invention and any double-stranded oligonucleotide, by a fluorescence method according to the experimental protocol is described below.
The titrations are carried out according to a protocol identical to that used for the titrations of the preceding test.

[6] = biological target: oligonucleotide capable of forming a monomeric G-quadruplex structure; experiment: Test of affinity No. 2: dissociation constant of the complex with a monomeric G-quadruplex oligonucleotide, by fluorescence; format: binding; conditions: read-out: Affinity/selectivity G4 Test 2 (Kd by fluorescence) Kd
Description: Test of affinity No. 2: Measurement of the dissociation constant, expressed in μM, of the complex between a product of the invention and an oligonucleotide, capable of forming a monomeric G-guadruplex structure, by a fluorescence method according to the experimental protocol is described below.
The titrations are carried out at 20° C. in a quartz cuvette having a useful volume of 3 ml and a cross section of 10×10 mm, placed in the thermostated compartment of the Spex Fluorolog 3 fluorimeter (Jobin-Yvon). […] To a 0.1 μM solution of compound are added increasing concentrations of nucleic acids. After an equilibration time of 3 minutes, a fluorescence emission spectrum is recorded for each point, using slits of 5 nm and an excitation wavelength of 340 nm. Each aliquot represents an additional volume of 3 microliters. The effects of dilution are corrected at the end of the experiment after integrating the emission signal. The curves representing the emission intensity as a function of the nucleic acid concentration are then analyzed and fitted with the Kaleidagraph 3.52 software for Macintosh.

[7] = 20° C., sodium cacodylate pH 7.2, 100 mM potassium chloride (K+)

Row | IC50 [1] | IC50 [4] | Affinity/selectivity G4 Test 2 (Kd by fluorescence) Selectivity factor [5] | Kd [6, 7] | Kd ([6]; Na+) | SMILES | Affinity G4 Test 3 Delta Tm [2] | Affinity/selectivity G4 Test 1 (alpha screen) Selectivity factor [3]
1 | 1.5 µM | 1.06 µM | – | – | – | C[n+]1cccc2cc(NC(=O)c3cccc(C(=O)NCC[N+]4(C)CCCCC4)n3)ccc21.[I-].[I-] [Example 12, 2-[(1-methylquinolinio-6-yl)amido]-6-[2(-1-methylpiperidinio-1-yl)ethylamido]-2,6-pyridinedicarboxylic acid diiodide] | 12.1 °C | >3
2 | 0.3 µM | 0.06 µM | >1000 | 0.0007 µM | 0.0032 µM | C[n+]1cccc2cc(NC(=O)c3cccc(C(=O)Nc4cc5ccccc5[n+](C)c4)n3)ccc21.[I-].[I-] [Example 9, 2-[(1-methylquinolinio-6-yl)amido]-6-[(1-methylquinolinio-3-yl)amido]-2,6-pyridinedicarboxylic acid iodide] | 21 °C | >50
3 | 0.45 µM | 0.16 µM | >>100 | 0.007 µM | – | C[n+]1cccc2cc(NC(=O)c3cccc(C(=O)Nc4ccc5c(ccc[n+]5C)c4)n3)ccc21.[I-].[I-] [Example 1, bis[(1-methylquinolinio-6-yl)amido]-2,6-pyridinedicarboxylic acid diiodide] | 26 °C | >20
